The subject of one experiment is cyclin D1. The experiment can be described thus: Cyclin D1 percentage degradation in Calu-1 cells (immunoblotting). Type of experiment: cell-based. The settings on record: 16 hours. The method in brief: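 Cyclin D1 degradation was assessed by western blot. Clarified lysates, obtained by RIPA lysis with inhibitors and centrifugation at 13,000 rpm, were normalized by BCA protein assay and separated by SDS-PAGE. Bands were detected with Western ECL Substrate on a Bio-Rad ChemiDoc MP Imaging system and quantified in Image Lab software to derive percentage degradation.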
On the technique in general: A western blot detects proteins with antibodies after separation by electrophoresis.

In a further experiment the target is T1, CDK4 (Homo sapiens, UniProt P11802).
T1 construct: endogenous in cells; host or cells: Calu-1
Briefly: CDK4 percentage degradation in Calu-1 cells (immunoblotting). Type of experiment: cell-based. To be noted: for inhibition at 0.2 µM: read-out: CDK4 Degradation (200 nM); for inhibition at 10 µM: read-out: CDK4 Degradation (10 μM). The essentials:
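CDK4 degradation was measured by immunoblotting. Cells were washed in cold PBS and lysed in RIPA buffer with inhibitors for 30 min at 4° C., then spun at 13,000 rpm to clear. After BCA protein determination, lysates were heated at 99° C. for 5 min in Laemmli buffer, resolved on SDS-PAGE, imaged on a ChemiDoc MP with ECL substrate, and band intensities quantified.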

Where two headings read alike, the source gives them in different places. Bounds are passed on as bounds.

T1 sequence (P11802 2-303 limits assumed): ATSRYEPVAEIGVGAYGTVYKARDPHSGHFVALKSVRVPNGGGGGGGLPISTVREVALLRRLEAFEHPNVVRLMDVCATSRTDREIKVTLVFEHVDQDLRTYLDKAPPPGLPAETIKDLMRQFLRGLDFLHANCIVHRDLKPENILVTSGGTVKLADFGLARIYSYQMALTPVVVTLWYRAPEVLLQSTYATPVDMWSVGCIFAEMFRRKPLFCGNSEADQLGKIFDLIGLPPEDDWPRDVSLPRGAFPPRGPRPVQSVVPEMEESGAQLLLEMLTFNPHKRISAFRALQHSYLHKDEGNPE
T1 sequence (P24385 whole entry partner): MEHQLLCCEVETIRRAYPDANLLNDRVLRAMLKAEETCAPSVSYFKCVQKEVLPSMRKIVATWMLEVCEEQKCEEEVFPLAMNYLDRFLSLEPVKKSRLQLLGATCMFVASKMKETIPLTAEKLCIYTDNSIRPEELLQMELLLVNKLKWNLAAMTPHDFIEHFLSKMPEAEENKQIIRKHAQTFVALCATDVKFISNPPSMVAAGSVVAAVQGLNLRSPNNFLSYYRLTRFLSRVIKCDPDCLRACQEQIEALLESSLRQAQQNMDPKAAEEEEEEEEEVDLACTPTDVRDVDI
T1 sequence (Q16531 2-1140 limits assumed, further chain): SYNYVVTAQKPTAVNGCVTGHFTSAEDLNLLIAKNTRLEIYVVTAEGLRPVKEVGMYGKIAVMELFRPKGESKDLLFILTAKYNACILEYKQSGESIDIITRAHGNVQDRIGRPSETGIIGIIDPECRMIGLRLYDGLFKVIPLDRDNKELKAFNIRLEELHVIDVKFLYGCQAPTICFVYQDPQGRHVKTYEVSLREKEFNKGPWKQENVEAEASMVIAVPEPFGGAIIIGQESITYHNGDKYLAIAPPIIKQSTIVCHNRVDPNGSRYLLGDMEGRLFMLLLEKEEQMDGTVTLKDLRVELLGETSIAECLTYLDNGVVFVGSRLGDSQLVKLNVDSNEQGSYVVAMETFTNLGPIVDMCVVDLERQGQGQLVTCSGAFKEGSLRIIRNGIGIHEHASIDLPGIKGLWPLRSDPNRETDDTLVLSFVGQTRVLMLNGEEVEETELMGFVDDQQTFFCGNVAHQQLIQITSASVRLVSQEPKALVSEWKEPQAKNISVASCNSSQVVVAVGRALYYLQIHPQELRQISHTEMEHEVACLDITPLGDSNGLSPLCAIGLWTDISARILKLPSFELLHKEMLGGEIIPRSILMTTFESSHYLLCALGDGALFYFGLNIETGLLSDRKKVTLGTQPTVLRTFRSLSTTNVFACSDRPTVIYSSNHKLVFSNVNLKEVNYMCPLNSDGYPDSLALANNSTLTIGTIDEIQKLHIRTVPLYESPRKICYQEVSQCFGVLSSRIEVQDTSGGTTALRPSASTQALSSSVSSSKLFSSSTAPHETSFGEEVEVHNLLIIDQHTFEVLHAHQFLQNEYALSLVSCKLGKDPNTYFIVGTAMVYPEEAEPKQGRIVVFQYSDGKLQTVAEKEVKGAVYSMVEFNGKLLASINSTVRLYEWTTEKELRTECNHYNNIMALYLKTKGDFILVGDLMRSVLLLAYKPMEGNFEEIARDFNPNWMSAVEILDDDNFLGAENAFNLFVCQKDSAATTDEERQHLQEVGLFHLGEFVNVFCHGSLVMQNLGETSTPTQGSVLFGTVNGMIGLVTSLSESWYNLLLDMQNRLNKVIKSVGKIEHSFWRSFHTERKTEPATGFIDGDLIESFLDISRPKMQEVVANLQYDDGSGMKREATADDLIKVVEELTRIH

With `CC(=O)c1c(C)c2cnc(Nc3ccc(N4CCN(CC(=O)NCCCCCNc5ccccc5C(=O)Nc5nc(C)c(C)s5)CC4)cn3)nc2n(C2CCCC2)c1=O` [CPD-363, 2-((5-(2-(4-(6-((6-Acetyl-8-cyclopentyl-5-methyl-7-oxo-7,8-dihydropyrido[2,3-d]pyrimidin-2-yl)amino)pyridin-3-yl)piperazin-1-yl)acetamido)pentyl)amino)-N-(4,5-dimethylthiazol-2-yl)benzamide], in the experiment with cyclin D1, the “CyclinD1 Degradation (200 nM)” value was “A (protein percentage degradation >=80%)”. Moreover, on CDK4 (Calu-1 cells, 200 nM, 16 hours), the inhibition at 0.2 µM lay within 50 to 80%.

On to `CC(=O)c1c(C)c2cnc(Nc3ccc(N4CCN(CCNCCOCCOCCC(=O)Nc5ccccc5C(=O)Nc5nc(C)c(C)s5)CC4)cn3)nc2n(C2CCCC2)c1=O` [CPD-187, 2-(3-(2-(2-((2-(4-(6-((6-Acetyl-8-cyclopentyl-5-methyl-7-oxo-7,8-dihydropyrido[2,3-d]pyrimidin-2-yl)amino)pyridin-3-yl)piperazin-1-yl)ethyl)amino)ethoxy)ethoxy)propanamido)-N-(4,5-dimethylthiazol-2-yl)benzamide], for which the “CyclinD1 Degradation (200 nM)” value in the experiment on cyclin D1 was “D (protein percentage degradation <30%)”. Also, the inhibition at 0.2 µM on CDK4 (Calu-1, 16 h) is less than 30%.

For `CC(=O)c1c(C)c2cnc(Nc3ccc(N4CCN(CC(=O)NCCOCCNc5cccc(C(=O)Nc6nc(C)c(C)s6)c5C)CC4)cn3)nc2n(C2CCCC2)c1=O` [CPD-103, 3-((2-(2-(2-(4-(6-((6-Acetyl-8-cyclopentyl-5-methyl-7-oxo-7,8-dihydropyrido[2,3-d]pyrimidin-2-yl)amino)pyridin-3-yl)piperazin-1-yl)acetamido)ethoxy)ethyl)amino)-N-(4,5-dimethylthiazol-2-yl)-2-methylbenzamide], in the experiment with cyclin D1, the “CyclinD1 Degradation (200 nM)” value is “D (protein percentage degradation <30%)”. Also, the inhibition at 0.2 µM at CDK4 (Calu-1 cells, 200 nM, 16 hours) was less than 30%.

For `CC(=O)c1c(C)c2cnc(Nc3ccc(N4CCN(CC(=O)NCCOCCOCCC(=O)Nc5ccccc5C(=O)Nc5cc[nH]n5)CC4)cn3)nc2n(C2CCCC2)c1=O` [CPD-073, 2-(3-(2-(2-(2-(4-(6-((6-Acetyl-8-cyclopentyl-5-methyl-7-oxo-7,8-dihydropyrido[2,3-d]pyrimidin-2-yl)amino)pyridin-3-yl)piperazin-1-yl)acetamido)ethoxy)ethoxy)propanamido)-N-(1H-pyrazol-3-yl)benzamide], the “CyclinD1 Degradation (200 nM)” value in the experiment with cyclin D1 was “D (protein percentage degradation <30%)”. The inhibition at 0.2 µM at CDK4 (Calu-1 cells, 200 nM, 16 hours) lay in the range of 50 to 80%.

Regarding `Cc1nc(NC(=O)c2ccccc2NC(=O)CCNC(=O)CN2CCN(c3ccc(Nc4ncc5cc6n(c5n4)C4(CCCCC4)CNC6=O)nc3)CC2)sc1C` [CPD-315, N-(4,5-Dimethylthiazol-2-yl)-2-(3-(2-(4-(6-((6′-oxo-7′,8′-dihydro-6′H-spiro[cyclohexane-1,9′-pyrazino[1′,2′:1,5]pyrrolo[2,3-d]pyrimidin]-2′-yl)amino)pyridin-3-yl)piperazin-1-yl)acetamido)propanamido)benzamide], the “CyclinD1 Degradation (10 μM)” value in the experiment on cyclin D1 is “D (protein percentage degradation < 30%)”. For the same compound, the inhibition at 10 µM at CDK4 (Calu-1 cells, 16 hours) was less than 30%.

As for `Cc1nc(NC(=O)c2ccccc2NC(=O)CCCCCNC(=O)CN2CCN(c3ccc(Nc4ncc5cc6n(c5n4)C4(CCCCC4)CNC6=O)nc3)CC2)sc1C` [CPD-318, N-(4,5-Dimethylthiazol-2-yl)-2-(6-(2-(4-(6-((6′-oxo-7′,8′-dihydro-6′H-spiro[cyclohexane-1,9′-pyrazino[1′,2′:1,5]pyrrolo[2,3-d]pyrimidin]-2′-yl)amino)pyridin-3-yl)piperazin-1-yl)acetamido)hexanamido)benzamide], the “CyclinD1 Degradation (10 μM)” value with cyclin D1 is “D (protein percentage degradation < 30%)”. Besides, the inhibition at 10 µM at CDK4 (Calu-1 cells, 16 hours) lay in the range of 30 to 50%.

The values are drawn from patent US20250235543A1, “MODIFIED PROTEINS AND PROTEIN DEGRADERS” (Cullgen (Shanghai), Inc., priority 2021, published 2025).
